Laboratory results taken from patent publication US11319526B2, “Methods and compositions for making antibodies and antibody derivatives with reduced core fucosylation” (Seagen Inc., priority 2008, dated 2022).

Legend:
[1] = test system: core fucosylation of h1F6 in CHO DG44 cell line; experiment: Capillary electrophoresis of oligosaccharides of h1F6 expressed in the presence of alkynyl fucose peracetate; type: cell-based, Chinese hamster; details: h1F6 expressed with 50 μM alkynyl fucose peracetate; β-galactosidase treated sample (FIG. 1C)
Experimental: To determine the effect of alkynyl fucose peracetate on glycosylation of antibodies, a CHO DG44 cell line expressing a humanized IgG1 anti-CD70 monoclonal antibody, h1F6 (see International Patent Publication WO 06/113909) was cultured at 3.0×10^5 cells per mL in 30 mLs of CHO culture media at 37°, 5% CO2, by shaking at 100 RPM in 125 mL shake flasks. The CHO culture media was supplemented with insulin like growth factor (IGF), penicillin, streptomycin and either 50 or 100 μM alkynyl fucose peracetate (prepared as described in Example 1). […]
To further characterize the glycans on the h1F6 antibodies from Example 3, capillary electrophoresis was performed. […] Labeled oligosaccharides were diluted with water and analyzed by capillary electrophoresis using a Beckman Coulter PA-800 in a N-CHO coated capillary (Beckman Coulter). […] Labeled oligosaccharides were detected using laser induced fluorescence (LFI) with an excitation wavelength of 488λ. Emission fluorescence was detected at 520λ.
Samples of the antibodies were also treated with β-galactosidase to remove galactose. […] Labeled oligosaccharides were diluted with water and analyzed by capillary electrophoresis using a Beckman Coulter PA-800, in a N-CHO coated capillary (Beckman Coulter) running in 40 mM EACA, 0.2% HPMC at pH 4.5. […] Labeled oligosaccharides were detected using laser induced fluorescence (LFI) with an excitation wavelength of 488λ. […]

[2] = test system: antibody core fucosylation in CHO DG44 cell line producing h1F6; experiment: Effect of fucose analogs on antibody core fucosylation (h1F6 from CHO DG44 culture); type: cell-based, Chinese hamster; details: Cricetulus griseus, CHO-DG44, 120 h, Table 1, day 5; for inhibition at 50 µM: 50 μM fucose analog, inhibition of core fucosylation of h1F6, read-out: Inhibition at 50 μM; for inhibition at 1000 µM: 1 mM fucose analog, ND = non-core fucosylated antibody not detected due to poor antibody production or inhibition of cell growth
Experimental: Media was supplemented with insulin like growth factor (IGF), penicillin, streptomycin and either 1 mM or 50 μM of the fucose analog (prepared as described supra). On day 5 post inoculation, the culture was centrifuged at 13000 RPM for 5 minutes to pellet cells; antibodies were then purified from supernatant.
(§1) Antibody purification was performed by applying the conditioned media to protein A resin pre-equilibrated with 1× phosphate buffered saline (PBS), pH 7.4. After washing resin with 20 resin bed volumes of 1×PBS, antibodies were eluted with 5 resin bed volumes of Immunopure IgG elution buffer (Pierce Biotechnology, Rockford, Ill.). A 10% volume of 1M tris pH 8.0 was added to neutralize the eluted fraction.

[3] = test system: BALB/C mouse spleen cell and SP2/0 mouse myeloma cell fusion expressing a murine anti-Liv-1 antibody; experiment: Antibody core fucosylation in hybridoma, BALB/C-SP2/0 fusion; type: cell-based; details: 50 μM in Hybridoma Serum Free Media
Experimental: Three antibody expressing hybridoma lines were tested to determine the effect of alkynyl fucose peracetate on antibody core fucosylation from these cell lines. These hybridomas were: 1) a BALB/C mouse spleen cell and a P2X63-AG 8.653 mouse myeloma cell fusion expressing the chimeric anti-ley antigen antibody BR96; 2) a BALB/C mouse spleen cell and a NS0 mouse myeloma cell fusion expressing a murine anti-Liv1 antibody; and 3) a BALB/C mouse spleen cell and a SP2/0mouse myeloma cell fusion expressing a murine anti-Liv-1 antibody. These hybridomas were cultured at 3.0×10^5 cells per mL in 30 mLs of Hybridoma Serum Free Media (Invitrogen, Carlsbad Calif.) supplemented with 50 μM alkynyl fucose peracetate at 37° C., 5% CO2 and shaking at 100 RPM in a 125 mL shake flask. Cultures were fed on day 3 with 2% volume of a feed media. On day four, the culture was split 1:4 into fresh culture media. Cultures were fed with a 6% volume of feed media on days 5, 7, 9 and 10. Conditioned media was collected when the viability of the culture dropped below 60% or on day 13 by passing culture through a 0.2 μm filter.
Antibody purification was performed by applying the conditioned media to a protein A column pre-equilibrated with 1× phosphate buffered saline (PBS), pH 7.4. […]

[4] = test system: CHO DG44 cell line producing h1F6; experiment: Non-core fucosylated antibody production in different culture media; type: cell-based, Chinese hamster; details: 50 μM; PowerCHO versus OptiCHO media, day 5
Experimental: To determine the effect of different culture media on non-core fucosylated antibody production, a CHO DG44 cell line producing a humanized IgG1 anti-CD70 monoclonal antibody, h1F6 (see International Patent Publication WO 06/113909), was cultured in various media. The cells (7.5×10^5 cells per mL in 2 mLs) were cultured in PowerCHO (Lonza Group Ltd., Basil, Switzerland) or OptiCHO (Invitrogen, Carlsbad, Calif.) media CHO culture media at 37°, 5% CO2 and shaking at 100 RPM in a 6 well tissue culture plate. Media was supplemented with insulin like growth factor (IGF), penicillin, streptomycin and 50 μM alkynyl fucose peracetate. On day 5 post-inoculation, the culture was centrifuged at 13000 RPM for 5 minutes to pellet cells; antibodies were then purified from supernatant.
as §1, with “fraction. Production of non-core fucosylated antibody was determined as described in Example 7. The proportion of non-core fucosylated to core fucosylated antibody produced from each media was similar.” for “fraction.”

[5] = test system: CHO DG44 cell line producing h1F6; experiment: Incorporation of fucose analogs into antibodies (h1F6 from CHO DG44 culture); type: cell-based, Chinese hamster; details: 1 mM
Experimental: The effects of fucose analogs on antibody core fucosylation were tested at concentrations of […] and 1 mM as follows: A CHO DG44 cell line producing a humanized IgG1 anti-CD70 monoclonal antibody, h1F6 (see International Patent Publication WO 06/113909) was cultured at 7.5×10^5 cells per mL in 2 mLs of CHO culture media at 37°, 5% CO2 and shaking at 100 RPM in a 6 well tissue culture plate. Media was supplemented with insulin like growth factor (IGF), penicillin, streptomycin and either 1 mM or 50 μM of the fucose analog (prepared as described supra). On day 5 post inoculation, the culture was centrifuged at 13000 RPM for 5 minutes to pellet cells; antibodies were then purified from supernatant.
as §1, with “fraction. The amount of non-core fucosylated antibody produced was determined as described in Example 7.” for “fraction.”
Certain other fucose analogs were tested for their ability to be incorporated into antibodies. These fucose analogs were tested at concentrations of 50 μM and 1 mM using the methodology as described above and in Example 7.

| Compound | oligosaccharide core fucosylated [1] [%] | oligosaccharide non-core fucosylated [1] | inhibition at 50 µM [2] [%] | inhibition at 1000 µM [2] [%] | core fucosylation [3] | proportion of non-core fucosylated to core fucosylated antibody produced from each media [4] | % Incorporation [5] |
| --- | --- | --- | --- | --- | --- | --- | --- |
| C#CC(OC(C)=O)[C@@H](OC(C)=O)[C@@H](OC(C)=O)[C@@H](C=O)OC(C)=O (stereo partly drawn) [Alkynyl fucose peracetate, 5-ethynylarabinose tetraacetate] | 6 | approximately 85% | > 80 | > 80 | inhibited | similar |  |
| C#CC[C@@H]1OC(OC(C)=O)[C@@H](OC(C)=O)[C@H](OC(C)=O)[C@@H]1OC(C)=O (stereo partly drawn) [propargyl fucose tetraacetate, (3S,4R,5R,6S)-6-(prop-2-ynyl)-tetrahydro-2H-pyran-2,3,4,5-tetrayl tetraacetate] |  |  | ~10 | 10 to 20 |  |  | 80% (1 mM) |
